From patent publication US6835734B2, “1,3-dioxolanes with antitussive activity” (Dompé S.p.A., priority 2000, dated 2004)

Assays:
[1] = system: male Dunkin-Hartley Guinea pigs; test: cough strokes after aerosol administration of the medicaments; assay type: in vivo, Guinea pig; settings: aerosol with 1% (w/v) aqueous solution for 10 minutes, compared with saline aerosol controls
[2] = system: male Dunkin-Hartley Guinea pigs; test: capsaicin aerosol-induced cough after intravenous administration; assay type: in vivo, Guinea pig; settings: for recorded cough strokes / inhibition of the response to the tussigenic stimulus: 10 mg/kg intravenous, 0.0045% capsaicin aerosol 5 minutes after administration; for recorded cough strokes: during the 4 minute aerosol; for inhibition of the response to the tussigenic stimulus: strokes recorded during 4 minute aerosol
Experimental: The tests were carried out on male Dunkin-Hartley Guinea pigs (4-6 animals for group), which were subjected to aerosol of a 0.0045% (p/v) capsaicin aqueous solution [Lavezzo A., Pulm. Pharmacol., 5, 143-147, 1992; Gallico L. et al, Br. J. Pharmacol., 112, 795-800. 1994] 5 minutes after intravenous administration of 0.5 ml of a (−)-1,2-cyclohexylidene-3-(4-phenyl-piperazin-1-yl)-propane-1,2-diol fumarate solution (DF 1689A, 10 mg/kg) compared with 0.5 ml of a levodropropizine solution, pH 4.5 (10 mg/kg) and with an equal volume of saline solution (control).

Row | SMILES | inhibitory effect on number of cough strokes [1] | recorded cough strokes [2] | inhibition of the response to the tussigenic stimulus [2] [%] | inhibition on the tussigen stimulus induced by capsaicin aerosol ([2]; 15 minutes after the intravenous administration) [%] | inhibition on the tussigen stimulus induced by capsaicin aerosol ([2]; 30 minutes after the intravenous administration) [%]
1 | OCC(O)CN1CCN(c2ccccc2)CC1 (single isomer, unassigned; (-)) [levodropropizine, (−) 3-(4-phenyl-piperazin-1-yl)-1,2-propanediol, reference compound] | about 35% | 5.17±0.54 | 43.6 |  | 
2 | O=C(O)/C=C/C(=O)O.c1ccc(N2CCN(C[C@H]3COC4(CCCCC4)O3)CC2)cc1 [DF 1689A, S(−)-1,2-cyclohexylidene-3-(4-phenyl-piperazin-1-yl)propane-1,2-diol fumarate] | about 35% | 4.83±0.54 | 47.3 | 34.6 | 27.3
